In article PMC9321647, “Curcumin-Based β-Diketo Ligands for Ga^3+: Thermodynamic Investigation of Potential Metal-Based Drugs” (Pharmaceuticals, 2022):

What was measured:
[1] = Spectrophotometric pH-metric titrations of Ga^3+:ligand systems (stability constants, pGa, speciation); assay type: physicochemical; settings: for log β 112 overall stability constant (Ga^3+) / log β 124 overall stability constant (Ga^3+) / logK11 apparent formation constant (Ga^3+, M:L 1:1) / logK12 apparent formation constant (Ga^3+, M:L 1:2): 298 K; for log β 112 overall stability constant (Ga^3+) / log β 124 overall stability constant (Ga^3+): HypSpec; for logK11 apparent formation constant (Ga^3+, M:L 1:1) / logK12 apparent formation constant (Ga^3+, M:L 1:2): estimated from logβMLH; for Prevailing Species (pH 5.5) / Prevailing Species (pH 7.4): Ga^3+ complex species; for Prevailing Species (pH 7.4): ** possible formation of gallium hydroxide species; for pGa (−log[Ga^3+]free): [Ga^3+]total = 1 μM, [L]total = 10 μM, pH 7.4, 25 °C
Protocol: UV–visible spectra were recorded with a JASCO V-570 UV/Vis/NIR spectrophotometer at 298 K in the 250–600 nm spectral range employing quartz cells (1 cm optical path). To perform spectrophotometric titrations, ligands (denoted generally as L in the following) were dissolved in methanol to give a mother solution (2.50 mM), that was then diluted in water in order to obtain a final concentration of 50 μM. The metal/ligand (M:L) solutions were obtained by adding appropriate quantities of Ga(NO3)3 as methanol solutions (5–10 mM) in order to obtain the metal-to-ligand 1:1 molar ratio (L = 50 μM and V = 25 mL). For both L and M:L systems, pH (initial value of about 5) was varied by adding small amounts (<1 μL) of concentrated NaOH (4 M) up to ca. pH 11, thus to consider volume variations negligible. To evaluate the complexation ratio, constant additions of the M solution (10 µL each time, M = 10^–2 M) were dropped into the ligand solution (V = 25 mL, L = 50 μM) using a micropipette in order to reach different M:L molar ratios. A constant ionic strength (NaNO3, 0.1 M) was maintained in all experiments. Spectrophotometric investigations of iron(III) systems were performed in the same conditions; the Fe^3+ solution was freshly prepared in methanol starting from Fe(NO3)3·9H2O. The overall protonation constants (logβqr) and the overall stability constants of metal complexes (logβpqr) were evaluated from spectrophotometric data. The stability constants (βpqr), defined by the following equations:(3) pM^m++qL^l^−+rH^+⇌MpLqHr(mp−lq+r) (4) βpqr=[MpLqHr(mp−lq+r)]/[M^m+]^p·[L^l−]^q·[H^+]^r where L is the ligand in the completely dissociated form and H is proton, were refined using least-squares calculation in HypSpec. The results of least-squares calculation include the standard deviations and correlation coefficients of the refined parameters. The quantities are obtained by performing error propagation calculation from the experimental errors onto the parameters. The stability constant refinement furnishes least-squares estimates of the standard deviation, σ, of the stability constant β. The error on logβ is calculated as follows: σ(logβ) = [log(β + σ) − log(β − σ)]/2.
(§1) Hydroxide species, such as [Ga(OH)2]^+, were taken into account for calculations. The hydrolysis constants for Ga^3+ are as follows: logβ1,1,0 = −3.93; logβ2,1,0 = −7.73; logβ3,1,0 = −12.38; logβ4,1,0 = −15.96; logβ32,13,0 = −66.3; logβ3,1,0(s) = −3.54 [43]; pGa is defined as (−log[Ga^3+]free) and is calculated at specific conditions (Ga^3+total = 1 μM, Ltotal = 10 μM, pH 7.4, 25 °C). For the calculation of the iron(III) overall stability constants, the presence of [Fe(OH)]^2+, [Fe(OH)2]^+ and [Fe(OH)3] species was taken into account.

[2] = DPPH radical-scavenging assay; settings: free ligand
Protocol: The antioxidant activity of compounds 4 and 5 and their Ga^3+ metal complexes at the M:L 1:1 and 1:2 molar ratio was evaluated in terms of hydrogen-donating or radical scavenging ability using a stable DPPH radical, 1,1-diphenyl-2-picrylhydrazyl radical, following the procedure previously reported. The percentage of inhibition (%In) of the DPPH radical by each sample was calculated according to the following formula: %In=A0−At/A0×100 where A0 represents the absorbance of the control (DPPH radical) at time 0, while At refers to the absorbance of the mixture antioxidant/DPPH at time t (120 min). Values of absorbance were corrected considering volume dilution. All the determinations were performed in duplicate.

[3] = Iron-chelating ability by spectrophotometric analysis / transmetalation; assay type: physicochemical; settings: for logβ124(Fe): Fe^3+, same conditions as Ga^3+ systems
Excerpt: Compounds 4 and 5 were selected to evaluate iron-chelating ability by spectrophotometric analysis in the same conditions as the ones applied to carry out investigations on Ga^3+ systems. The calculated logβ124(Fe) values were 56.2 (2) and 58.6 (4) for 4 and 5, respectively. From the difference between the logβ values of the complexes with two metal ions, it is possible to calculate the apparent stability constant K (logK = logβ124(Fe) − logβ124(Ga)) associated with the transmetalation reaction (Equation (1)). (1) Fe^3++[Ga(H2L)2]^+ ⇆ […]+[Fe(H2L)2]^+
UV–visible spectra were recorded with a JASCO V-570 UV/Vis/NIR spectrophotometer at 298 K in the 250–600 nm spectral range employing quartz cells (1 cm optical path). To perform spectrophotometric titrations, ligands (denoted generally as L in the following) were dissolved in methanol to give a mother solution (2.50 mM), that was then diluted in water in order to obtain a final concentration of 50 μM. The metal/ligand (M:L) solutions were obtained by adding appropriate quantities of Ga(NO3)3 as methanol solutions (5–10 mM) in order to obtain the metal-to-ligand 1:1 molar ratio (L = 50 μM and V = 25 mL). For both L and M:L systems, pH (initial value of about 5) was varied by adding small amounts (<1 μL) of concentrated NaOH (4 M) up to ca. pH 11, thus to consider volume variations negligible. […] The overall protonation constants (logβqr) and the overall stability constants of metal complexes (logβpqr) were evaluated from spectrophotometric data. […] The quantities are obtained by performing error propagation calculation from the experimental errors onto the parameters. […] The error on logβ is calculated as follows: σ(logβ) = [log(β + σ) − log(β − σ)]/2.
as §1, with “For the calculation of the iron(III) overall stability constants, the presence of [Fe(OH)]^2+, [Fe(OH)2]^+ and [Fe(OH)3] species was taken into account.” left out

[4] = Kinetic stability of ligands in simulated physiological conditions (UV-Vis); assay type: physicochemical; settings: for Stability: percentage of the residual ligand after 4 h: PBS, pH 7.4, 37 °C in darkness; for Stability ranking (residual ligand after 4 h): rank among the 7 ligands, 1 = most stable
Protocol: The chemical stability of ligands and metal complexes at the M:L 1:L molar ratio at 37 °C in darkness was evaluated by UV−Vis spectroscopy as a change in absorbance in the 250−600 nm range over an overall period of 8 h. Solutions (5.0 × 10^–5 mol L^–1) of the ligands were prepared in 0.1 mol L^–1 phosphate-buffered solution (PBS) at pH 7.4. Spectra were recorded every 30 min. All profiles were linearized as the hyperbolic function defined by Equation (2), which represents an empirical model that describes drug decomposition or release well [42]:(2) t/f%=at+b where f% is the percentage of the residual compound at time t (min) referred to the starting concentration at time zero determined by reading the absorbance at λmax.

Compound	log β 112 overall stability constant (Ga^3+) [1]	log β 124 overall stability constant (Ga^3+) [1]	logK11 apparent formation constant (Ga^3+, M:L 1:1) [1]	logK12 apparent formation constant (Ga^3+, M:L 1:2) [1]	Prevailing Species (pH 5.5) [1]	Prevailing Species (pH 7.4) [1]	pGa (−log[Ga^3+]free) [1]	IC50 [2]	logβ124(Fe) [3]	Stability: percentage of the residual ligand after 4 h [4]	Stability ranking (residual ligand after 4 h) [4]	LogK apparent stability constant of transmetalation (logβ124(Fe) − logβ124(Ga)) ([3]; Fe^3+ + [Ga(H2L)2]^+ exchange)
2-((4Z,6E)-5-hydroxy-7-(4-hydroxyphenyl)-4-((E)-3-(4-hydroxy-3-ethoxyphenyl) acryloyl) hepta-4,6-dien-1-yl)isoindoline-1,3-dione [Compound 5]	28.54 (3)	57.00 (1)	8.09	16.1	[Ga(H2L)2]^+	[Ga(H2L)2]^+	23.2	32 µM	58.6 (4)	52%	5	
COc1cc(/C=C/C(=O)C(CCCN2C(=O)c3ccccc3C2=O)C(=O)/C=C/c2ccc(O)c(OC)c2)ccc1O [Compound 4]	28.48 (5)	55.33 (5)	8.04	14.45	[Ga(H2L)2]^+	[Ga(H2L)2]^+	21.5	20 µM	56.2 (2)	42%	7	0.9(3)
